Data reported in paper PMC12469672, “Effects on Oral Squamous Carcinoma Cell Lines and Their Mechanisms of Pyrazole N-Aryl Sulfonate: A Novel Class of Selective Cyclooxygenase-2 Inhibitors” (International Journal of Molecular Sciences, 2025).
Read-outs that look alike come from different tables or passages of the source.

Tests used:
Type in all cases: cell-based
CAL-27 cells [1] = test: CCK-8 proliferation assay, CAL-27; conditions: for IC50: Homo sapiens; for Selectivity Index CAL-27: SI = IC50,VERO/IC50,CAL-27
Protocol: (§1) The OSCC cell lines CAL-27 (STCC12901P, Servicebio, Wuhan, China) and SAS (CC0706, Cellcook, Guangzhou, China) were cultured in Dulbecco Modified Eagle Medium F12 (DMEM/F12) (G4610-500ML, Servicebio, Wuhan, China) supplemented with 10% fetal bovine serum (FBS) (AB-FBS-DIA1050, ABW, Shanghai, China) and 100 U/mL penicillin-streptomycin-gentamicin solution (G4014-100ML, Servicebio, Wuhan, China). VERO cells were cultured in DMEM (G4524-500ML, Servicebio, Wuhan, China) supplemented with 10% FBS (AB-FBS-DIA1050, ABW, China) and 100 U/mL penicillin–streptomycin–gentamicin solution (G4014-100ML, Servicebio, Wuhan, China). […] were maintained at 37 °C in a humidified 5% CO2 incubator. For experiments, 1 × 10^6 cells were seeded per T-25 culture flask.
(§2) CAL-27, SAS, and VERO cells were seeded in 96-well plates at a density of 5000 cells per well. At specified time intervals, 10 μL of Cell Counting Kit-8 (CCK-8) reagent (K1018, Apexbio, Boston, MA, USA) was added to each well and incubated for 2 h. Absorbance at 450 nm was measured using a microplate reader (Infinite M200 Pro, Tecan Group, Männedorf, Switzerland).

SAS cells [2] = test: CCK-8 proliferation assay, SAS; conditions: for IC50: SAS; for Selectivity Index SAS: SI = IC50,VERO/IC50,SAS
Protocol: as §1, §2

[3] = tested on: COX-2 protein in CAL-27 cells; test: Western blot COX-2, CAL-27; conditions: CAL-27, vs control group and CXB-treated group
Protocol: Cell lysates were centrifuged at 12,000× g for 10 min at 4 °C and then quantified using the BCA Protein Assay Kit (CW0014S, Cwbio, Taizhou, China). The lysate was denatured with sodium dodecyl sulfate–polyacrylamide gel electrophoresis (SDS-PAGE) sample loading buffer (P1040, Solarbio, Beijing, China), followed by SDS-PAGE and electrotransfer to polyvinylidene difluoride membranes (10600023, Cytiva, Marlborough, MA, USA). The membranes were incubated overnight at 4 °C with GAPDH (1:5000, 1049-1-AP, Proteintech Group, Wuhan, China), anti-PTGS2 (1:2000, 12375-1-AP, Proteintech Group, China), anti-BAX (1:1000, ab777, Abcam, Cambridge, UK), anti-BCL2 (1:5000, ET1702-53, HUABIO, Hangzhou, China), anti-BCL-XL (1:8000, 10783-1-AP, Proteintech Group, China), anti-MMP2 (1:3000, 66366-1-Ig, Proteintech Group, China), anti-MMP9 (1:3000, 10372-2-AP, Proteintech Group, China), anti-JAK1 (1:3000, 66466-1-Ig, Proteintech Group, China), anti-phospho-JAK1 (1:400, GB115604-100, Servicebio, China), anti-STAT3 (1:2000, 10253-2-AP, Proteintech Group, China), and anti-phospho-STAT3 (1:1000, 39595, Activemotif, Shanghai, China) at the appropriate dilution and then incubated with the secondary antibody at room temperature for 1.5 h. The bands were visualized by employing an ECL detection reagent (36208ES76, Yeasen, Shanghai, China) and independently quantified twice using ImageJ (v1.8.0.322) and ChemiScope Analysis (Version 2.1.6.0) software. Subsequently, the obtained data were normalized to GAPDH.

CAL-27 cells [4] = test: Transwell migration assay, CAL-27; conditions: CAL-27, 24 h treatment at working concentrations, vs control
Protocol: (§3) Following 24 h drug treatment at the predefined working concentrations, CAL-27 and SAS cells (5 × 10^5 cells/mL in serum-free medium) were seeded in Transwell upper chambers (200 μL/well, 1 × 10^5 cells) with 700 μL complete medium containing 10% FBS in lower chambers. After 36 h of incubation (37 °C, 5% CO2), the cells from the upper surface of the membrane were wiped off using a cotton swab, whereupon migrated cells were fixed (4% paraformaldehyde [P0099-100 mL, Beyotime, Haimen, China], 4 °C, 4 h), stained (0.1% crystal violet [C0121-100 mL, Beyotime, China], 30 min), and quantified by counting five random fields under a microscope (CX23, Olympus, Tokyo, Japan) using ImageJ (v1.8.0.322), with triplicate wells per condition.

SAS cells [5] = test: Transwell migration assay, SAS; conditions: 24 h treatment at working concentrations, vs control
Protocol: as §3

[6] = tested on: MMP2 mRNA in CAL-27 cells; test: RT-qPCR MMP2 mRNA, CAL-27; conditions: CAL-27, 24 h, vs control
Protocol: (§4) Equal amounts of RNA were reverse transcribed into cDNA using the Reverse Transcription Kit (AG11705, Accurate Biology, Guangzhou, China) following the manufacturer’s instructions. Quantitative PCR was performed on a QIAGEN Rotor-GeneQ system (9001862, QIAGEN, Hilden, Germany) with SYBR Green Pro Taq HS Premix II (AG11702, Accurate Biology, China).
(§5) The PCR protocol consisted of initial denaturation at 95 °C for 30 s, followed by 40 cycles of 95 °C for 5 s and 60 °C for 30 s. All reactions were performed in triplicate, with melting curve analysis confirming amplification specificity. The expression of the target genes was normalized to GAPDH, and fold changes were calculated in the manner of the 2^−ΔΔCT .

CAL-27 cells [7] = test: Hoechst 33342 staining, CAL-27; conditions: CAL-27, 24 h, working concentrations, vs NC
Protocol: After 24 h drug treatment at the predefined working concentrations, CAL-27 and SAS cells were dyed with 300 μL Hoechst 33342 staining (C1022, Beyotime, China) in the dark at 37 °C for 10 min. Then, the residual Hoechst 33342 staining was washed 3 times with 1 × phosphate-buffered saline (PBS, G4250-500ML, Servicebio, China). The images were then immediately examined under an inverted fluorescence microscope (CX23, Olympus, Japan).

[8] = tested on: BCL2 mRNA in CAL-27 cells; test: RT-qPCR BCL2 mRNA, CAL-27; conditions: CAL-27, 24 h, vs control (NC)
Protocol: as §4, §5

[9] = CAL-27, 24 h, CAL-27, CCK-8, 24 h, given as a range, read-out: IC50 (range)
[10] = CAL-27, CAL-27, CCK-8, read-out: IC50 CAL-27
[11] = CCK-8, 24 h, given as a range, read-out: IC50 (range)

| Compound | IC50 (CAL-27 cells [1]; [9]) | IC50 (CAL-27 cells [1]; [10]) | Selectivity Index CAL-27 (CAL-27 cells [1]) | IC50 (SAS cells [2]; [11]) | IC50 (SAS cells [2]; CCK-8, read-out: IC50 SAS) | Selectivity Index SAS (SAS cells [2]) | COX-2 protein expression (Western blot) [3] | migratory capacity (Transwell) (CAL-27 cells [4]) | migratory capacity (Transwell) (SAS cells [5]) | MMP2 mRNA expression [6] | apoptotic cells (Hoechst 33342, fluorescence microscopy) (CAL-27 cells [7]) | BCL2 mRNA level [8] |
| --- | --- | --- | --- | --- | --- | --- | --- | --- | --- | --- | --- | --- |
| Cc1ccc(-c2cc(C)n(S(=O)(=O)Oc3ccc(I)cc3)n2)cc1 [Compound 4b] | 38.9 to 43.8 µM | 41.4 µM | 2.47 | 26 to 34.6 µM | 30.2 µM | 3.40 | significantly reduced | significantly reduced | significantly reduced | significantly downregulated | significant increase | significantly downregulated |
| Cc1ccc(-c2cc(C)n(S(=O)(=O)Oc3ccccc3Cl)n2)cc1 [Compound 4d] | 44.3 to 55.1 µM | 53.9 µM | >1.86 | 7.46 to 24.3 µM | 16.7 µM | >6.00 | significantly reduced | significantly reduced | significantly reduced | significantly downregulated | significant increase | significantly downregulated |
| Cc1cc(-c2ccco2)nn1S(=O)(=O)Oc1ccccc1Cl [Compound 5f] | 52.9 to 74.8 µM | 64.2 µM | 3.50 | 59.4 to 69.5 µM | 64.2 µM | 3.50 | significantly reduced | significantly reduced | significantly reduced | significantly downregulated | significant increase | upregulated |
